Reference: patent US20260207759A1, “COMPOSITION OF CD40-BINDING MOLECULE AND PHARMACEUTICAL USE THEREOF” (SUZHOU SUNCADIA BIOPHARMACEUTICALS CO., LTD., priority 2022, published 2026)
Where two headings read alike, the source gives them in different places.

Key:
[1] = biological target: T1, CD40 (Homo sapiens, UniProt P25942); assay: FACS binding of human-rabbit chimeric anti-CD40 antibodies to Raji cells
Method: Raji cells are of a tumor cell line that overexpresses human CD40. 2E5 Raji cells were inoculated onto a 96-well plate. 100 μL of a test antibody was added, with the highest final concentration of 100 nM. The antibody was 5-fold diluted to 8 concentrations. The plate was incubated at 4° C. for 1 h. The plate was washed once with a washing buffer, and an AF647-conjugated anti-human IgG antibody (Jackson Immunoresearch Laborotories, Cat. #205-609-088) was added at a dilution ratio of 1:500. The plate was incubated at 4° C. for 30 min. The plate was washed once with the washing buffer, and fluorescence intensity was measured using a flow cytometer. The binding EC50 values of the anti-CD40 antibodies for CD40 were calculated. The anti-CD40 antagonistic antibody CFZ533 (i.e., iscalimab, Nova) was used as a positive control, and the heavy and light chain variable region sequences were derived from sequence 5 and sequence 2 of U.S. Pat. No. 8,277,810B, respectively.

[2] = system: human CD40 transgenic mice; assay: Mouse skin graft rejection model (antibodies, tacrolimus combination); assay type: in vivo
From the text: Male Balb/c mice, 6 weeks old, were purchased from the Laboratory Animal Management Department, Shanghai Institute of Planned Parenthood Research. Housing environment: SPF; certification number: 20180006023393.
On day-2 of the experiment, the mice were intraperitoneally injected with tacrolimus FK506 or CD40 antagonistic antibodies. On day 0 of the experiment, donor Balb/c mice and C57BL6/J mice were anesthetized with 4% chloral hydrate. The tails of the donor mice were removed, and full circles of skin, 1 cm in length, were isolated from the tails. The hair on the acceptor mice's back was removed, and an incision was made along the skin layer. An equal area of skin was removed while preserving the back fat and connective tissue. The donor skin was placed on the acceptor mice's incision site, and the incision was closed with glue. The mice were then placed back in cages to recover.
The mice were dosed according to the administration regimens in Table 16. After 7 days of recovery, the mouse skin survival was observed daily and rejection scores were recorded.

[3] = mouse, in vivo, ip, 10 mg/kg
Method: After arrival, the animals were acclimatized for 7 days and randomly grouped. On day 0 of the experiment, each group of mice was intraperitoneally injected with the anti-CD40 antibody at 10 mg/kg. 100-150 μL of blood samples were collected at 15 min, 4 h, and 8 h after administration, and on days 1, 2, 4, 7, 10, and 14 after administration, anticoagulated with 10 μL of EDTA-K2 (0.1 M), and stored on ice. Mouse plasma was assayed by ELISA for antibody concentration at different time points. The assay is specifically as follows: A goat anti-human IgG Fc antibody (Rockland, Cat. #609-101-017) was diluted to 2.5 μg/mL with PBS and added to a 96-well plate at 50 μL/well, and the plate was incubated overnight at 4° C. After three washes with a washing buffer, 50 μL of blocking solution was added to each well, and the plate was incubated at 37° C. for 1 h. The mouse plasma and the standard curve of the test antibody were added, and the plate was incubated at 37° C. for 2 h. After three washes with the washing buffer, anti-hlgG Fab-HRP (Sigma, Cat. #A0293, 1:10,000) was added at 50 μL/well, and the plate was incubated at room temperature for 1 h. The plate was washed three times with the washing buffer. TMB was added at 100 μL/well, and the mixtures were left to react in the dark for 5 min. 0.16 M sulfuric acid was added at 100 μL/well. The OD value at 450 nm was measured with an Envision microplate reader, and the concentrations of CD40 antagonistic antibodies were calculated.

[4] = biological target: T1, CD40; assay: DC cell activation assay system (monocyte-derived DC, CD40L-induced CD80/CD86, IL-12/23 p40, TNFα); assay type: cell-based; set-up: endogenous in cells; host or cells: human PBMCs (B cells); DCs differentiated from human CD14+ monocytes
From the text: CD40 is highly expressed on dendritic cells (DCs), and CD40L, upon binding to CD40, can induce DC activation, up-regulate the expression of multiple activation markers on the DC cell surface, and promote the secretion of multiple inflammatory factors from DCs, further amplifying immune responses. CD40 antagonistic antibodies block the binding of CD40L to CD40, thereby eliminating the immune activation process of DC cells.
Monocytes were sorted and enriched from fresh primary human peripheral blood PBMCs using the EsaySep™ human CD14 sorting kit (Stemcell, 19359), and differentiated for 6 days with RPMI-1640 medium (10% FBS and 1% penicillin-streptomycin), 50 ng/ml IL-4 (PeproTech, 200-04), and 50 ng/mL GM-CSF (PeproTech, 300-03). On day 7, the differentiated DC cells were plated at 1E5/well into a 96-well cell culture plate. Serially diluted test antibodies were added to the wells, and the cells were co-incubated at 37° C. in 5% CO2 for 0.5 h. CD40L-his and an anti-His antibody were then added to each well at final concentrations. After 48 h of culture, the level of DC cell activation was measured by flow cytometry: after centrifugation, the supernatant was removed, and the cells were washed twice with FACS buffer (PBS+2% FBS) and stained at room temperature for 15 min with 100 μL of Fixable viability dye EF780 (Invitrogen, 65086514) diluted at 1:1000. The cells were washed twice and then blocked at room temperature for 10 min with 100 μL of human Fc blocker (BD, 564220) diluted at 1:200. After centrifugation, the cells were incubated at 4° C. for 0.5 h with flow cytometry antibodies (Alexa Fluor® 700 anti-human CD11c (Biolegend, 337220), Brilliant Violet 421™ anti-human CD80 (Biolegend, 305221), and APC anti-human CD86 (Biolegend, 305412)) diluted at 1:200. After centrifugation, the supernatant was removed, the cells were washed twice with FACS buffer and then resuspended in 200 μL of PBS, and the fluorescence intensity on the cell surface was measured by a flow cytometer (BD FACS Celesta).
In addition, the level of cytokine secretion in the supernatant was measured after 24 h (TNFα, Cisbio, 62[…]) and 48 h (IL-12/23 p40, Novus, VAL121) of culture.
With reference to the method in Example 11, the inhibitory activity of the anti-CD40 antibody 9E6-L4H2-AAYTE carrying the AAYTE mutation in the Fc in the DC cell activation assay system was measured.

T1 sequence (P25942 21-277): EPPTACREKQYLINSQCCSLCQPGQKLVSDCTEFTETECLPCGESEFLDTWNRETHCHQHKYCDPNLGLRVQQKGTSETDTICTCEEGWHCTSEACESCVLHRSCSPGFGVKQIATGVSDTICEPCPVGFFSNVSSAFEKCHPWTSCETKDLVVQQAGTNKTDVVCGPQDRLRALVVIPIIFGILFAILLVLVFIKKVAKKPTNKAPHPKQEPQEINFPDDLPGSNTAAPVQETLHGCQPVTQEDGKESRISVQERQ

## CFZ533: anti-CD40 antagonistic antibody CFZ533 (i.e., iscalimab), positive control, variable regions from U.S. Pat. No. 8,277,810B
[1]
  EC50: 2.41 nM
[2]; 3 mpk ip
  Day-15 skin graft survival rate (%): 0%
[2]; 3 mpk, score 3 (best) to 0 (rejected)
  Skin graft score, 8 days: 2.7
[2]; 3 mpk, score 3 to 0
  Skin graft score, 10 days: 2.1
  Skin graft score, 15 days: 0
  Skin graft score, 20 days: 0
[2]; 10 mpk ip
  Day-15 skin graft survival rate (%): 0%
[2]; 10 mpk, score 3 to 0
  Skin graft score, 8 days: 2.9
  Skin graft score, 10 days: 2.1
  Skin graft score, 15 days: 0
  Skin graft score, 20 days: 0
[3]
  AUC(0-d14)((h) * (mg/L)): 12655 (h) * (mg/L)
  C max: 75.95 µg/mL
  T1/2: 214.8 h
[4]; 48 h, read-out: IC50 (nM) in DC cell activation assay system, CD80 MFI
  IC50: 1.19 nM
[4]; 48 h, read-out: IC50 (nM) in DC cell activation assay system, CD86 MFI
  IC50: 1.93 nM
[4]; supernatant, 24 h, read-out: IC50 (nM) in DC cell activation assay system, TNFα
  IC50: 0.35 nM
[4]; supernatant, 48 h, read-out: IC50 (nM) in DC cell activation assay system, IL-12/23 p40
  IC50: 0.68 nM
